According to patent US20180340225A1 (SHANGHAI INSTITUTE FOR ENDOCRINE AND METABOLIC DISEASES, priority 2015, published 2018):

Test system: patients with Type 2 diabetes
Assay: Clinical efficacy indexes before and after 3 months of Acarbose treatment in naïve patients with Type 2 diabetes, by enterotype
Format: in vivo, human
Conditions: Prevotella enterotype, After treatment
Method: For naïve patients with Type 2 diabetes, their liver and kidney functions, blood glucose and lipid levels, intestinal hormones, inflammatory factors, and cardiovascular risk-related factors are evaluated before medication. Their stool, urine, and blood samples are retained. […] The patients' blood glucose levels are followed up every month within 3 months, and the medication is adjusted according to the blood glucose level. Three months later, the pre-medication assessment is repeated, and the urine, stool and blood samples are retained.
a) A randomized, opened, positive control method is adopted to collect the naïve patients with Type 2 diabetes and normal controls of their spouses. […] The newly diagnosed patients of Type 2 diabetes without medication receive routine examinations, including the retention of stool and blood samples.
i. Draw venous blood 15 ml under fasting condition, of which, 1.5 ml is used for detection of plasma glucose, 6.5 ml is added to ordinary tubes (including aprotinin, DPPV inhibitor), and 6.5 ml is added to anticoagulant tubes (including heparin and RNA later)
ii. Centrifuge the blood in ordinary tube at 4° C., when serum is separated out, draw about 3 ml, and divide to three 1.5 ml Eppendorf on average, then tighten the tube caps;
iii. Centrifuge the anticoagulation blood immediately at 4° C., to separate out about 3 ml of plasma, then divide to three 1.5 ml imported RNAase free Eppendorf tubes on average, […]

SMILES: C[C@H]1O[C@H](O[C@H]2[C@H](O)[C@@H](O)[C@@H](O[C@H]3[C@H](O)[C@@H](O)C(O)O[C@@H]3CO)O[C@@H]2CO)[C@H](O)[C@@H](O)[C@@H]1N[C@H]1C=C(CO)[C@@H](O)[C@H](O)[C@H]1O (stereo partly shown) [Acarbose]
- AKP Mean: 77.5
- ALB Mean: 44.39
- ALT Mean: 44.36
- APOA Mean: 1.267
- APOB Mean: 0.9273
- AST Mean: 29.36
- Adipisin Mean: 3221619.467
- Adpn Mean: 10063264.07
- BMI Mean: 25.11
- BW Mean: 72.63
- CP0 Mean: 2.485
- CP30 Mean: 2.802
- CP60 Mean: 3.609
- CP120 Mean: 5.305
- CP180 Mean: 4.735
- DBIL Mean: 6.293
- DBP Mean: 74.93
- ENDOM Mean: 14.27
- Endothelin Mean: 4.776
- FABP3 Mean: 2147
- FABP4 Mean: 10510.4
- FGF1M Mean: 24.33
- FGF2M Mean: 13.67
- FGF19M Mean: 19.3
- FGF23M Mean: 43.47
- G30 Mean: 7.601
- G60 Mean: 9.055
- G120 Mean: 9.171
- G180 Mean: 7.853
- GIP0 Mean: 57.4
- GIP30 Mean: 208.4
- GIP60 Mean: 217.2
- GIP120 Mean: 227.8
- GIP180 Mean: 194.8
- GMCSFM Mean: 67.97
- GO Mean: 6.712
- HB Mean: 147.8
- HBA1C Mean: 6.313
- HDL Mean: 2.869
- HGF Mean: 400.9
- HIP Mean: 97.21
- HOMA.IR Mean: 3.327
- IFNr1 Mean: 38.8
- IL1B Mean: 0.9107
- IL1bM Mean: 22.23
- IL2M Mean: 58.77
- IL4M Mean: 31.074
- IL5M Mean: 43.97
- IL6M Mean: 40.53
- IL6 Mean: 2.665
- IL8 Mean: 15.44
- IL9M Mean: 84.9
- IL10 Mean: 1.798
- IL12 Mean: 9.944
- IL13 Mean: 279.4
- IL15M Mean: 291.8
- IL17AM Mean: 32.03
- IL17EM Mean: 21.23
- IL17FM Mean: 232.6
- IL21 Mean: 34.47
- IL22M Mean: 30.5
- IL23M Mean: 41.7
- IL27 Mean: 73.1
- IL28a Mean: 18.37
- IL31M Mean: 112.3
- IL33M Mean: 43.5
- INS0 Mean: 11.734
- INS30 Mean: 14.21
- INS60 Mean: 23.404
- INS120 Mean: 27.84
- INS180 Mean: 20.88
- K Mean: 4.054
- LBP Mean: 17.616
- LDL Mean: 1.169
- LEPTIN Mean: 4522
- LPA Mean: 214.8
- Lymph Mean: 28.21
- MCP1 Mean: 252.8
- MIP3A Mean: 29.94
- NEU Mean: 63.59
- NGAL Mean: 174248.3333
- NGF Mean: 2.434
- Na Mean: 142.2
- PAI1 Mean: 61006.73333
- PDGFAA Mean: 4507
- PDGFAABB Mean: 24006.8
- PP0 Mean: 69.67
- PP30 Mean: 376.7
- PP60 Mean: 318.92
- PP120 Mean: 260.1
- PP180 Mean: 204.7
- RANTES Mean: 47562.53333
- RBC Mean: 4.945
- RCv Mean: 0.4421
- SBP Mean: 119.8
- TBIL Mean: 14.9
- TC Mean: 4.883
- TG Mean: 1.694
- TNFBM Mean: 44.7
- TNFa Mean: 4.572
- TPRO Mean: 73.55
- Trophonin M Mean: 17.9
- WAIST Mean: 88.93
- WBC Mean: 6.146
- WHR Mean: 0.9136
- bun Mean: 326.5
- creatine Mean: 67.42
- crp Mean: 19.638
- egf Mean: 267.604
- fetuinA Mean: 417.3
- fgf1 Mean: 13.79
- fgf2 Mean: 43.98
- fgf21M Mean: 97.93
- fgf21 Mean: 0.296
- monocyte Mean: 5.829
- mpo Mean: 467.3
- oscatinM Mean: 101.1
- pCP0 Mean: 1066
- pCP30 Mean: 1362
- pCP60 Mean: 1935.42
- pCP120 Mean: 2723.04
- pCP180 Mean: 2526
- pGLP10 Mean: 3.644
- pGLP130 Mean: 11.41
- pGLP160 Mean: 13.72
- pGLP1120 Mean: 9.07
- pGLP1180 Mean: 6.458
- pHOMA.IR Mean: 2.717
- pgh0 Mean: 53.4025
- pgh30 Mean: 64.28
- pgh60 Mean: 56.35
- pgh120 Mean: 42.5275
- pgh0180 Mean: 50.87
- pgluc0 Mean: 39.2
- pgluc30 Mean: 41.17
- pgluc60 Mean: 36.68
- pgluc120 Mean: 29.63
- pgluc180 Mean: 30.43
- pins0 Mean: 416.3
- pins30 Mean: 639.9
- pins60 Mean: 969
- pins120 Mean: 1373
- pins180 Mean: 1153
- platelet Mean: 206.3
- ppyy0 Mean: 43.57
- ppyy30 Mean: 64.34
- ppyy60 Mean: 56.78
- ppyy120 Mean: 54.02
- ppyy180 Mean: 51.59
- rGT Mean: 43.12
- resistin Mean: 25013.66667
- sicam1 Mean: 123
- svcam1 Mean: 545.498
- urea Mean: 4.954
- vegfa Mean: 340.2
- vegfc Mean: 128.7
- vegfd Mean: 195.1
